According to PubChem BioAssay (NCI):
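Each compound was tested at five concentrations against cells in 96-well plates for 48 hours. The concentration for 50% growth inhibition is given as GI50. TGI marks complete inhibition of growth.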

Key:
Test in all cases: growth of human tumour cells (NCI), 48 h
MOLT-4 leukemia = system: MOLT-4 leukemia
UACC-62 melanoma = system: UACC-62 melanoma
PC-3 prostate = system: PC-3 prostate
SF-295 CNS = system: SF-295 CNS
RXF 393 renal = system: RXF 393 renal
SK-MEL-5 melanoma = system: SK-MEL-5 melanoma
SN12C renal = system: SN12C renal
EKVX NSCLC = system: EKVX NSCLC
NCI-H226 lung = system: NCI-H226 lung
MDA-MB-231 breast = system: MDA-MB-231 breast
K-562 leukemia = system: K-562 leukemia
BT-549 breast = system: BT-549 breast
NCI-H460 lung = system: NCI-H460 lung
SK-OV-3 ovarian = system: SK-OV-3 ovarian
LOX IMVI melanoma = system: LOX IMVI melanoma
HCT-15 colon = system: HCT-15 colon
TK-10 renal = system: TK-10 renal
DU-145 prostate = system: DU-145 prostate
IGROV1 ovarian = system: IGROV1 ovarian
HCC-2998 colon = system: HCC-2998 colon
HS 578T breast = system: HS 578T breast
HT29 colon = system: HT29 colon
HCT-116 colon = system: HCT-116 colon
SK-MEL-2 melanoma = system: SK-MEL-2 melanoma
SW-620 colon = system: SW-620 colon
CAKI-1 renal = system: CAKI-1 renal
NCI-H23 lung = system: NCI-H23 lung
CCRF-CEM leukemia = system: CCRF-CEM leukemia
NCI-H522 lung = system: NCI-H522 lung
SF-268 CNS = system: SF-268 CNS
SNB-19 CNS = system: SNB-19 CNS
A549 NSCLC = system: A549 NSCLC
MALME-3M melanoma = system: MALME-3M melanoma
SR leukemia = system: SR leukemia
KM12 colon = system: KM12 colon
COLO 205 colon = system: COLO 205 colon
A498 renal = system: A498 renal
OVCAR-4 ovarian = system: OVCAR-4 ovarian
SK-MEL-28 melanoma = system: SK-MEL-28 melanoma
SF-539 CNS = system: SF-539 CNS
HOP-62 NSCLC = system: HOP-62 NSCLC
OVCAR-5 ovarian = system: OVCAR-5 ovarian
786-0 renal = system: 786-0 renal
OVCAR-3 ovarian = system: OVCAR-3 ovarian
HOP-92 NSCLC = system: HOP-92 NSCLC
UO-31 renal = system: UO-31 renal
RPMI-8226 leukemia = system: RPMI-8226 leukemia
HL-60(TB) leukemia = system: HL-60(TB) leukemia
T-47D breast = system: T-47D breast
OVCAR-8 ovarian = system: OVCAR-8 ovarian
NCI/ADR-RES ovarian = system: NCI/ADR-RES ovarian
UACC-257 melanoma = system: UACC-257 melanoma
SNB-75 CNS = system: SNB-75 CNS
ACHN renal = system: ACHN renal

O=C(Nc1ccc(-c2nc(-c3cccc(O)c3)c(-c3ccnc(Br)c3)[nH]2)cc1)c1ccccc1
GI50 (MOLT-4 leukemia): 2000 nM | TGI (MOLT-4 leukemia): 7480 nM | GI50 (UACC-62 melanoma): 1730 nM | TGI (UACC-62 melanoma): 4090 nM | GI50 (PC-3 prostate): 1900 nM | TGI (PC-3 prostate): 5840 nM | GI50 (SF-295 CNS): 340 nM | TGI (SF-295 CNS): 1160 nM | GI50 (RXF 393 renal): 294 nM | TGI (RXF 393 renal): 869 nM | GI50 (SK-MEL-5 melanoma): 1790 nM | TGI (SK-MEL-5 melanoma): 3230 nM | GI50 (SN12C renal): 2680 nM | TGI (SN12C renal): 8950 nM | GI50 (EKVX NSCLC): 2140 nM | TGI (EKVX NSCLC): 6190 nM | GI50 (NCI-H226 lung): 2330 nM | TGI (NCI-H226 lung): 6530 nM | GI50 (MDA-MB-231 breast): 2590 nM | TGI (MDA-MB-231 breast): 17100 nM | GI50 (K-562 leukemia): 2120 nM | TGI (K-562 leukemia): > 100000 nM | GI50 (BT-549 breast): 1800 nM | TGI (BT-549 breast): 5790 nM | GI50 (NCI-H460 lung): 2450 nM | TGI (NCI-H460 lung): 6520 nM | GI50 (SK-OV-3 ovarian): 2680 nM | TGI (SK-OV-3 ovarian): 7090 nM | GI50 (LOX IMVI melanoma): 1520 nM | TGI (LOX IMVI melanoma): 3950 nM | GI50 (HCT-15 colon): 2010 nM | TGI (HCT-15 colon): 7290 nM | GI50 (TK-10 renal): 2920 nM | TGI (TK-10 renal): 8030 nM | GI50 (DU-145 prostate): 2760 nM | TGI (DU-145 prostate): 8740 nM | GI50 (IGROV1 ovarian): 2620 nM | TGI (IGROV1 ovarian): 6530 nM | GI50 (HCC-2998 colon): 2270 nM | TGI (HCC-2998 colon): 6370 nM | GI50 (HS 578T breast): 308 nM | TGI (HS 578T breast): 946 nM | GI50 (HT29 colon): 2850 nM | TGI (HT29 colon): > 100000 nM | GI50 (HCT-116 colon): 2260 nM | TGI (HCT-116 colon): 7600 nM | GI50 (SK-MEL-2 melanoma): 2020 nM | TGI (SK-MEL-2 melanoma): 5460 nM | GI50 (SW-620 colon): 2370 nM | TGI (SW-620 colon): 7170 nM | GI50 (CAKI-1 renal): 1980 nM | TGI (CAKI-1 renal): 5800 nM | GI50 (NCI-H23 lung): 2040 nM | TGI (NCI-H23 lung): 4780 nM | GI50 (CCRF-CEM leukemia): 1320 nM | TGI (CCRF-CEM leukemia): > 100000 nM | GI50 (NCI-H522 lung): 2010 nM | TGI (NCI-H522 lung): 5350 nM | GI50 (SF-268 CNS): 2210 nM | TGI (SF-268 CNS): 6950 nM | GI50 (SNB-19 CNS): 1830 nM | TGI (SNB-19 CNS): 7140 nM | GI50 (A549 NSCLC): 2950 nM | TGI (A549 NSCLC): > 100000 nM | GI50 (MALME-3M melanoma): 1830 nM | TGI (MALME-3M melanoma): 4710 nM | GI50 (SR leukemia): 1260 nM | TGI (SR leukemia): > 100000 nM | GI50 (KM12 colon): 2440 nM | TGI (KM12 colon): 7130 nM | GI50 (COLO 205 colon): 1990 nM | TGI (COLO 205 colon): 4840 nM | GI50 (A498 renal): 1660 nM | TGI (A498 renal): 4530 nM | GI50 (OVCAR-4 ovarian): 2270 nM | TGI (OVCAR-4 ovarian): 6090 nM | GI50 (SK-MEL-28 melanoma): 1760 nM | TGI (SK-MEL-28 melanoma): 4820 nM | GI50 (SF-539 CNS): 1510 nM | TGI (SF-539 CNS): 4780 nM | GI50 (HOP-62 NSCLC): 2540 nM | TGI (HOP-62 NSCLC): 9050 nM | GI50 (OVCAR-5 ovarian): 2920 nM | TGI (OVCAR-5 ovarian): 19100 nM | GI50 (786-0 renal): 1080 nM | TGI (786-0 renal): 4030 nM | GI50 (OVCAR-3 ovarian): 2090 nM | TGI (OVCAR-3 ovarian): 5670 nM | GI50 (HOP-92 NSCLC): 1840 nM | TGI (HOP-92 NSCLC): 4730 nM | GI50 (UO-31 renal): 2560 nM | TGI (UO-31 renal): 6560 nM | GI50 (RPMI-8226 leukemia): 595 nM | TGI (RPMI-8226 leukemia): 2890 nM | GI50 (HL-60(TB) leukemia): 1370 nM | TGI (HL-60(TB) leukemia): 6820 nM | GI50 (T-47D breast): 1730 nM | TGI (T-47D breast): 4730 nM | GI50 (OVCAR-8 ovarian): 2600 nM | TGI (OVCAR-8 ovarian): > 100000 nM | GI50 (NCI/ADR-RES ovarian): 3000 nM | TGI (NCI/ADR-RES ovarian): 12400 nM | GI50 (UACC-257 melanoma): 2210 nM | TGI (UACC-257 melanoma): 5840 nM | GI50 (SNB-75 CNS): 286 nM | TGI (SNB-75 CNS): 3370 nM | GI50 (ACHN renal): 2430 nM | TGI (ACHN renal): 7420 nM
